According to US10669272B2, “Substituted naphthyridinone compounds useful as T cell activators” (BRISTOL-MYERS SQUIBB COMPANY, priority 2018, dated 2020):
Like-named read-outs stand apart in the source and are kept apart here.

Tests used:
human DGKα = target: T1, human DGKα (Homo sapiens, UniProt P23743); assay: DGKα LIPGLO assay (extruded liposome substrate), in vitro DGK inhibition; assay type: biochemical; settings: read-out: DGKa LIPGLO IC50
T1 construct: TVMV protease cleavage site (C); Hexa-His (C); made in house; host or cells: Sf9 insect cells (baculovirus, Bac-to-Bac)
T1 sequence (P23743 with tags, fused parts or gaps): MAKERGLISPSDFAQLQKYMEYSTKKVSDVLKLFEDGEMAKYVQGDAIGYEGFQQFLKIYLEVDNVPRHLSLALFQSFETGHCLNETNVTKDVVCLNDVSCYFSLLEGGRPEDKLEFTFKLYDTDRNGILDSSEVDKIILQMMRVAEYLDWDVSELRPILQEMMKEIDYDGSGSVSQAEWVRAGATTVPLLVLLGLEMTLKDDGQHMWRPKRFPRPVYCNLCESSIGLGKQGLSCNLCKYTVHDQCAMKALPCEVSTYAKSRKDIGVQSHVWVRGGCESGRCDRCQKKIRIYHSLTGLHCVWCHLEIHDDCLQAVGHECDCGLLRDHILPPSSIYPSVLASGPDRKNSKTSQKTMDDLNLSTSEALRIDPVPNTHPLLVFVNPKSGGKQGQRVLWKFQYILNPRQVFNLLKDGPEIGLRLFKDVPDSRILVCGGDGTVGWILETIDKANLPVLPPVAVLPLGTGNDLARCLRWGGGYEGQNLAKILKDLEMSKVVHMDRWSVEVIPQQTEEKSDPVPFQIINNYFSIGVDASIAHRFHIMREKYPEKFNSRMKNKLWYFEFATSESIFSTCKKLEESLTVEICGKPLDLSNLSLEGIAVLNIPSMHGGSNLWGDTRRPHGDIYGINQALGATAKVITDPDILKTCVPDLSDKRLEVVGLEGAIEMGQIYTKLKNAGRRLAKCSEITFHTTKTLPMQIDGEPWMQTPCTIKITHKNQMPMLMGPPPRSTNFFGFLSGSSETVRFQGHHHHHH

human DGKζ = target: T2, human DGKζ (Homo sapiens, UniProt Q13574); assay: DGKζ LIPGLO assay (extruded liposome substrate), in vitro DGK inhibition; assay type: biochemical; settings: read-out: DGKz LIPGLO IC50
T2 construct: TVMV protease cleavage site (C); Hexa-His (C); made in house; host or cells: Sf9 insect cells (baculovirus, Bac-to-Bac)
T2 sequence (Q13574 with tags, fused parts or gaps isoform Q13574-4): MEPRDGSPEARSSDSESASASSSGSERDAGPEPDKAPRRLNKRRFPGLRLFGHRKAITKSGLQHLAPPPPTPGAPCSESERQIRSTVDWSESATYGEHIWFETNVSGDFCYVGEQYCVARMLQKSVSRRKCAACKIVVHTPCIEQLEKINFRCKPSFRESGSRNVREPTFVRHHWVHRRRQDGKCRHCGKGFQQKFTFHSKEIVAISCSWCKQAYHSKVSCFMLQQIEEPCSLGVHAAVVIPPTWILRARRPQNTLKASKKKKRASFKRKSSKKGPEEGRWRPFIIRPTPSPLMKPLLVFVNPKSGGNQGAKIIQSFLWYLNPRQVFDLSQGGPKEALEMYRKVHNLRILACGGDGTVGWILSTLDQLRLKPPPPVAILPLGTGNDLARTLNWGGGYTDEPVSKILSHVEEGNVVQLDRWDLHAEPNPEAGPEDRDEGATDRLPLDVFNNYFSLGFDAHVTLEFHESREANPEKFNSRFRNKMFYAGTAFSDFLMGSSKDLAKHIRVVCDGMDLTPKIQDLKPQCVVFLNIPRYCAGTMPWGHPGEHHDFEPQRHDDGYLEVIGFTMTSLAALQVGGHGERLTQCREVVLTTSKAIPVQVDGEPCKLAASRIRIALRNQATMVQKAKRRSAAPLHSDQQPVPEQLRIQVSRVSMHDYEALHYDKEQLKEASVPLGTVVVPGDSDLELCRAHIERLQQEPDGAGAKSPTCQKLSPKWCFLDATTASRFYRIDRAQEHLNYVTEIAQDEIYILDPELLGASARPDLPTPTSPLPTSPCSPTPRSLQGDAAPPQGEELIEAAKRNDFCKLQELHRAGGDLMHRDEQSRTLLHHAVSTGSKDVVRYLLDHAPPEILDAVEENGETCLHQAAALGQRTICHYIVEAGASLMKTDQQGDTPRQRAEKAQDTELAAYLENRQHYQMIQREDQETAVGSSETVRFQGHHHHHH

| SMILES | IC50 (human DGKα; liposome (LIPGLO) assay) [µM] | IC50 (human DGKζ; liposome (LIPGLO) assay) [µM] | IC50 (human DGKα; DGKα liposome (LIPGLO) assay) [µM] | IC50 (human DGKζ; DGKζ liposome (LIPGLO) assay) [µM] |
| --- | --- | --- | --- | --- |
| C[C@@H]1CN(c2c(C#N)c(=O)n(C)c3ccc(C#N)nc23)CCN1C(c1ccc(F)cc1)c1ccncn1 (single isomer, unassigned) [Example 313] | 2.3 | 4.8 |  |  |
| C[C@@H]1CN(c2c(C#N)c(=O)n(C)c3ccc(C#N)nc23)CCN1C(c1ccc(Cl)cc1)c1ccncn1 (single isomer, unassigned) [Example 320] | 9.3 | 28 |  |  |
| Cc1ccnc(C(c2ccc(Cl)cc2)N2C[C@H](C)N(c3cc(=O)n(C)c4ccc(C#N)nc34)C[C@H]2C)c1 (single isomer, unassigned) [Example 364] | 1.6 | 3.9 |  |  |
| C[C@@H]1CN(c2cc(=O)n(C)c3ccc(C#N)nc23)[C@@H](C)CN1C(c1cccc(F)c1)c1ccc(C(F)(F)F)cn1 (single isomer, unassigned) [Example 371] | 3 | 2.1 |  |  |
| C[C@@H]1CN(c2cc(=O)n(C)c3ccc(C#N)nc23)[C@@H](C)CN1C(c1cccc(F)c1)c1ccccn1 (single isomer, unassigned) [Example 374] | 0.57 | 3.8 |  |  |
| C[C@@H]1CN(c2cc(=O)n(C)c3ccc(C#N)nc23)[C@@H](C)CN1C(c1ccc(F)cc1)c1cccnn1 (single isomer, unassigned) [Example 384] | 1.5 | 6.9 |  |  |
| C[C@@H]1CN(c2cc(=O)n(C)c3ccc(C#N)nc23)[C@@H](C)CN1C(c1ccc(F)cc1)c1cncc(F)c1 (single isomer, unassigned) [Example 386] | 2.3 | 4.6 |  |  |
| C[C@@H]1CN(c2cc(=O)n(C)c3ccc(C#N)nc23)[C@@H](C)CN1C(c1ccc(F)cc1)C1CCOCC1 (single isomer, unassigned) [Example 388] | 8.5 | 14 |  |  |
| C[C@@H]1CN(c2cc(=O)n(C)c3ccc(C#N)nc23)[C@@H](C)CN1C(c1ccc(Cl)cc1)c1ccncn1 (single isomer, unassigned) [Example 397] | 1.8 | 16 |  |  |
| C[C@@H]1CN(c2cc(=O)n(C)c3ccc(C#N)nc23)[C@@H](C)CN1C(c1ccc(F)cc1)c1ccncn1 (single isomer, unassigned) [Example 402] | 0.82 | 9.3 |  |  |
| CCC(c1ccc(F)c(F)c1)N1C[C@H](C)N(c2cc(=O)n(C)c3ccc(C#N)nc23)C[C@H]1C (single isomer, unassigned) [Example 411] | 22 | 19 |  |  |
| CC(c1ccc(C(F)(F)F)cc1F)N1C[C@H](C)N(c2cc(=O)n(C)c3ccc(C#N)nc23)C[C@H]1C (single isomer, unassigned) [Example 412] | 12 | 13 |  |  |
| Cc1ncc(C(c2ccc(Cl)cc2)N2CCN(c3c(C#N)c(=O)n(C)c4ccc(C#N)nc34)C[C@H]2C)cn1 (single isomer, unassigned) [Example 413] | 12 | 15 |  |  |
| C[C@@H]1CN(c2cc(=O)n(C)c3ccc(C#N)nc23)[C@@H](C)CN1C(c1ccc(Cl)cc1)c1ccc(F)c2c1OC(C)(C)C2 (single isomer, unassigned) [Example 459] | 36 | 1.1 |  |  |
| Cc1c(F)ccc(C(C)N2C[C@H](C)N(c3cc(=O)n(C)c4ccc(C#N)nc34)C[C@H]2C)c1Cl (single isomer, unassigned) [Example 487] | 41 | 11 |  |  |
| CC(c1c(F)cc(F)cc1F)N1C[C@H](C)N(c2cc(=O)n(C)c3ccc(C#N)nc23)C[C@H]1C (single isomer, unassigned) [Example 488] | 15 | 11 |  |  |
| COCC(c1ccc(F)cc1)N1C[C@H](C)N(c2cc(=O)n(C)c3ccc(C#N)nc23)C[C@H]1C (single isomer, unassigned) [Example 560] | 0.58 | 2.9 |  |  |
| C[C@@H]1CN(c2cc(=O)n(C)c3ccc(C#N)nc23)[C@@H](C)CN1Cc1ccc(OC(F)(F)F)cc1F (single isomer, unassigned) [Example 624] | 0.66 | 24 |  |  |
| Cc1cc(C(C)N2C[C@H](C)N(c3cc(=O)n(C)c4ccc(C#N)nc34)C[C@H]2C)no1 (single isomer, unassigned) [Example 648] | 0.59 | 3.9 |  |  |
| C[C@@H]1CN(c2cc(=O)n(C)c3ccc(C#N)nc23)[C@@H](C)CN1C(c1ccc(Cl)cc1)c1ccc2c(c1)OC(F)(F)O2 (single isomer, unassigned) [Example 656] | 23 | 4 |  |  |

| SMILES | IC50 (human DGKα; liposome (LIPGLO) assay) [µM] | IC50 (human DGKζ; liposome (LIPGLO) assay) [µM] | IC50 (human DGKα; DGKα liposome (LIPGLO) assay) [µM] | IC50 (human DGKζ; DGKζ liposome (LIPGLO) assay) [µM] |
| --- | --- | --- | --- | --- |
| C[C@@H]1CN(c2cc(=O)n(C)c3ccc(C#N)nc23)[C@@H](C)CN1C(c1ccc(F)cc1)c1ccccc1N1CCOCC1 (single isomer, unassigned) [Example 664] | > 250 | 4.5 |  |  |
| C[C@@H]1CN(c2cc(=O)n(C)c3ccc(C#N)nc23)[C@@H](C)CN1C(c1ccc(F)cc1)c1ccccc1N1CCOCC1 (single isomer, unassigned) [Example 665] | > 250 | > 250 |  |  |
| C[C@@H]1CN(c2cc(=O)n(C)c3ccc(C#N)nc23)[C@@H](C)CN1C(c1ccc(F)cc1)c1cnccn1 (single isomer, unassigned) [Example 674] | 0.4 | 4.3 |  |  |
| C[C@@H]1CN(c2cc(=O)n(C)c3ccc(C#N)nc23)[C@@H](C)CN1C(c1ccc(F)cc1)c1cnccn1 (single isomer, unassigned) [Example 675] | 4.6 | 23 |  |  |
| C[C@@H]1CN(c2cc(=O)n(C)c3ccc(C#N)nc23)[C@@H](C)CN1C(c1ccc(F)cc1)c1cccc2ccnn12 (single isomer, unassigned) [Example 694] | 0.84 | 0.12 |  |  |
| C[C@@H]1CN(c2cc(=O)n(C)c3ccc(C#N)nc23)[C@@H](C)CN1C(c1ccc(F)cc1)c1noc(C(C)(C)C)n1 (single isomer, unassigned) [Example 764] |  |  | 0.051 | 0.53 |
| C[C@@H]1CN(c2cc(=O)n(C)c3ccc(C#N)nc23)[C@@H](C)CN1C(c1ccc(F)cc1)c1noc(C(C)(C)C)n1 (single isomer, unassigned) [Example 765] |  |  | 0.62 | 0.13 |
| C[C@@H]1CN(c2cc(=O)n(C)c3ccc(C#N)nc23)[C@@H](C)CN1C(c1ccc(F)cc1)c1nnc(C2CC2)s1 (single isomer, unassigned) [Example 775] |  |  | 5.8 | 6.6 |
| C[C@@H]1CN(c2cc(=O)n(C)c3ccc(C#N)nc23)[C@@H](C)CN1C(c1ccc(F)cc1)c1nc(C(C)(C)C)co1 (single isomer, unassigned) [Example 778] |  |  | 0.15 | 0.34 |
| CC(c1ccc(F)cc1)N1C[C@H](C)N(c2c(C#N)c(=O)n(C)c3ccc(C#N)nc23)C[C@H]1C (single isomer, unassigned) [Example 783] |  |  | 1.2 | > 250 |
| CC(c1ccc(Br)cc1)N1C[C@H](C)N(c2c(C#N)c(=O)n(C)c3ccc(C#N)nc23)C[C@H]1C (single isomer, unassigned) [Example 789] |  |  | 1.2 | 7 |
| CC(c1ccc(Br)cc1)N1C[C@H](C)N(c2c(C#N)c(=O)n(C)c3ccc(C#N)nc23)C[C@H]1C (single isomer, unassigned) [Example 790] |  |  | 0.61 | > 250 |
| COC(=O)c1ccc(C(C)N2C[C@H](C)N(c3c(C#N)c(=O)n(C)c4ccc(C#N)nc34)C[C@H]2C)cc1 (single isomer, unassigned) [Example 793] |  |  | 6.9 | 11 |
| COC(=O)c1ccc(C(C)N2C[C@H](C)N(c3c(C#N)c(=O)n(C)c4ccc(C#N)nc34)C[C@H]2C)cc1 (single isomer, unassigned) [Example 794] |  |  | 24 | 120 |
| C[C@@H]1CN(c2c(C#N)c(=O)n(C)c3ccc(C#N)nc23)[C@@H](C)CN1C(c1ccc(F)cc1)c1ccc(C(F)(F)F)cn1 (single isomer, unassigned) [Example 837] |  |  | 5.7 | 35 |
| C[C@@H]1CN(c2c(C#N)c(=O)n(C)c3ccc(C#N)nc23)[C@@H](C)CN1C(c1ccc(F)cc1)c1cn(C)cn1 (single isomer, unassigned) [Example 852] |  |  | 1.3 | 5.7 |
| C[C@@H]1CN(c2c(C#N)c(=O)n(C)c3ccc(C#N)nc23)[C@@H](C)CN1C(c1ccc(F)cc1)c1ccns1 (single isomer, unassigned) [Example 855] |  |  | 27 | 20 |
| C[C@@H]1CN(c2c(C#N)c(=O)n(C)c3ccc(C#N)nc23)[C@@H](C)CN1C(c1ccc(F)cc1)c1cscn1 (single isomer, unassigned) [Example 856] |  |  | 0.33 | 5.6 |
| Cc1cc(C(c2ccc(F)cc2)N2C[C@H](C)N(c3c(C#N)c(=O)n(C)c4ccc(C#N)nc34)C[C@H]2C)no1 (single isomer, unassigned) [Example 865] |  |  | 18 | 14 |
